Target: T1, RIPK2 enzyme (Homo sapiens, UniProt O43353)
T1 construct: purchased Carna 09-128
Test: RIPK2 inhibition (ADP-Glo Kinase Assay)
Format: biochemical
Settings: RIPK2 5 nM, ATP 150 μM, MBP substrate, read-out: RIPK2 IC50
Method: RIPK2 inhibition was measured as follows:
The V9102 ADP-Glo Kinase Assay (including ultrapure ATP, 10 mM) was purchased from Promega. Native swine MBP was used as the substrate for the reaction and was purchased from SignalChem Biotech (catalogue number M42-51N). Assay buffer used for the assay consisted of the following components: MgCl2 (final concentration of 10 mM), Brij-35 (0.01%), DTT (final concentration of 2 mM), BSA (0.05%), EGTA (final concentration of 1 mM), and HEPE (pH 7.5 at final concentration of 50 mM).
Method: In a 384 well plate, 10 nL of test compound was dispensed using Echo550 and mixed with RIPK2 enzyme (final concentration of 5 nM) in assay buffer for 30 minutes at room temperature. […] Then ADP-Glo reagent was added and incubated for 60 min at room temperature. Last, Kinase Detection Reagent was added to the mixture and incubated for 60 min. The resulting luminescent signal was measured with an Envision reader to determine the amount of ADP produced. All plates contained vehicle controls (10 nL DMSO only) as a reference for the high control (0% kinase inhibition), and wells with no RIPK2 enzyme as reference for low control (100% kinase inhibition). Data were analyzed to determine the percent inhibition of ADP production in the presence of test compound using both low and high controls.

T1 sequence (O43353 1-299 limits assumed): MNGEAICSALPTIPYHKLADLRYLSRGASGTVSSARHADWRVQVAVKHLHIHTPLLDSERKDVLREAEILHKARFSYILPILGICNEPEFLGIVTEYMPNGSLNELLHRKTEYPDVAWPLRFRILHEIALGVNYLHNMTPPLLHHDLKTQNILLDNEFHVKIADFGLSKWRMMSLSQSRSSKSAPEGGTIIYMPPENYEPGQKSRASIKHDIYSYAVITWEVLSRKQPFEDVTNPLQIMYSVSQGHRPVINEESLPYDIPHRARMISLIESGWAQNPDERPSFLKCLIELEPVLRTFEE

| IC50 [nM] | SMILES |
| --- | --- |
| < 2.5 | CN1CCC(Oc2ccc3nccc(Oc4ccc(CC(=O)Nc5cnn(C(C)(C)C)c5)c(F)c4)c3c2)CC1 [Compound 79, N-(1-(tert-butyl)-1H-pyrazol-4-yl)-2-(2-fluoro-4-((6-((1-methyl-piperidin-4-yl)oxy)quinolin-4-yl)oxy)phenyl) acetamide] |
| 54.1 | CC(C)(C)c1cc(NC(=O)Cc2ncc(Oc3ncnc4ccc(F)cc34)cc2F)ncn1 [Compound 52, N-(6-(tert-butyl)pyrimidin-4-yl)-2-(3-fluoro-5-((6-fluoroquinazolin-4-yl)oxy)pyridin-2-yl)acetamide] |
| < 2.5 | Cc1cc(CC(=O)Nc2cnn(C(C)(C)C)c2)c(F)cc1Oc1ccnc2ccc(C(C)(C)C#N)cc12 [Compound 411, N-(1-(tert-butyl)-1H-pyrazol-4-yl)-2-(4-((6-(2-cyanopropan-2-yl)quinolin-4-yl)oxy)-2-fluoro-5-methylphenyl)acetamide] |
| < 2.5 | Cc1cc(CC(=O)Nc2cnn(C(C)(C)C)c2)ccc1Oc1ccnc2ccc(OC[C@@H]3CCCNC3)cc12 [Compound 194, (R)-N-(1-(tert-butyl)-1H-pyrazol-4-yl)-2-(3-methyl-4-((6-(piperidin-3-ylmethoxy)quinolin-4-yl)oxy)phenyl) acetamide] |
| < 2.5 | Cc1cc(CC(=O)Nc2cnn(C(C)(C)C)c2)ccc1Oc1ccnc2ccc(N3CCCS3(=O)=O)cc12 [Compound 266, N-(1-(tert-butyl)-1H-pyrazol-4-yl)-2-(4-((6-(1,1-dioxidoisothiazolidin-2-yl)quinolin-4-yl)oxy)-3-methylphenyl) acetamide] |
| < 2.5 | CCP(=O)(CC)c1ccc2nccc(Oc3ccc(CC(=O)Nc4cnn(C(C)(C)C)c4)c(F)c3C)c2c1 [Compound 301, N-(1-(tert-butyl)-1H-pyrazol-4-yl)-2-(4-((6-(diethylphosphoryl)quinolin-4-yl)oxy)-2-fluoro-3-methylphenyl) acetamide] |
| 21.4 | Cc1cc(Oc2ccnc3ccc(S(C)(=O)=O)cc23)c(C)cc1CC(=O)Nc1cnn(C(C)(C)C)c1 [Compound 446, N-(1-(tert-butyl)-1H-pyrazol-4-yl)-2-(2,5-dimethyl-4-((6-(methylsulfonyl)quinolin-4-yl)oxy)phenyl)acetamide] |
| < 2.5 | Cc1cc(CC(=O)Nc2cnn(C(C)(C)C)c2)ccc1Oc1ccnc2ccc(C(=O)N3CCCC3)cc12 [Compound 210, N-(1-(tert-butyl)-1H-pyrazol-4-yl)-2-(3-methyl-4-((6-(pyrrolidine-1-carbonyl)quinolin-4-yl)oxy)phenyl) acetamide] |
| < 2.5 | CC(C)(C)n1cc(NC(=O)Cc2ccc(Oc3ccnc4ccc(S(C)(=O)=O)cc34)c(F)c2F)cn1 [Compound 167, N-(1-(tert-butyl)-1H-pyrazol-4-yl)-2-(2,3-difluoro-4-((6-(methylsulfonyl)quinolin-4-yl)oxy)phenyl)acetamide] |
| < 2.5 | Cc1cc(CC(=O)Nc2cnn(C(C)(C)C)c2)ccc1Oc1ccnc2ccc(OC[C@H]3CCCNC3)cc12 [Compound 195, (S)-N-(1-(tert-butyl)-1H-pyrazol-4-yl)-2-(3-methyl-4-((6-(piperidin-3-ylmethoxy)quinolin-4-yl)oxy)phenyl) acetamide] |
| < 2.5 | Cc1c(Oc2ccnc3ccc(C(C)(C)O)cc23)ccc(CC(=O)Nc2cnn(C(C)(C)C)c2)c1F [Compound 302, N-(1-(tert-butyl)-1H-pyrazol-4-yl)-2-(2-fluoro-4-((6-(2-hydroxypropan-2-yl)quinolin-4-yl)oxy)-3-methylphenyl)acetamide] |
| < 2.5 | CCn1nc(NC(=O)Cc2ccc(Oc3ccnc4ccc(S(C)(=O)=O)cc34)cc2F)cc1C(C)(C)C [Compound 147, N-(5-(tert-butyl)-1-ethyl-1H-pyrazol-3-yl)-2-(2-fluoro-4-((6-(methylsulfonyl)quinolin-4-yl)oxy)phenyl)acetamide] |
| 9.3 | CC(C)(C)n1cc(NC(=O)Cc2ccc(Oc3ncnc4ccc(OCCO)cc34)cc2F)cn1 [Compound 16, N-(1-(tert-butyl)-1H-pyrazol-4-yl)-2-(2-fluoro-4-((6-(2-hydroxyethoxy)quinazolin-4-yl)oxy)phenyl)acetamide] |
| < 2.5 | Cc1c(Oc2ccnc3ccc(C(=O)N4CC(N)C4)cc23)ccc(CC(=O)Nc2cnn(C(C)(C)C)c2)c1F [Compound 349, 2-(4-((6-(3-amino-azetidine-1-carbonyl)quinolin-4-yl)oxy)-2-fluoro-3-methyl-phenyl)-N-(1-(tert-butyl)-1H-pyrazol-4-yl)acetamide] |
| 3.7 | CC(C)(C)c1cc(NC(=O)Cc2ncc(Oc3ncnc4ccc(OC5CCNCC5)cc34)cc2F)n[nH]1 [Compound 58, N-(5-(tert-butyl)-1H-pyrazol-3-yl)-2-(3-fluoro-5-((6-(piperidin-4-yloxy)quinazolin-4-yl)oxy)pyridin-2-yl)acetamide] |
| 23.7 | CC(C)(C)n1cc(NC(=O)Cc2ccc(Oc3ncnc4ccc(N5CCOCC5)cc34)cc2F)cn1 [Compound 14, N-(1-(tert-butyl)-1H-pyrazol-4-yl)-2-(2-fluoro-4-((6-morpholinoquinazolin-4-yl)oxy)phenyl)acetamide] |
| 99.7 | CC(C)(C)n1cc(NC(=O)Cc2ncc(Oc3ncnc4ccc(F)cc34)cc2F)cn1 [Compound 5, N-(1-(tert-butyl)-1H-pyrazol-4-yl)-2-(3-fluoro-5-((6-fluoroquinazolin-4-yl)oxy)pyridin-2-yl)acetamide] |
| < 2.5 | CC(C)(C)n1cc(NC(=O)Cc2ccc(Oc3ccnc4ccc(S(N)(=O)=O)cc34)cc2F)cn1 [Compound 46, N-(1-(tert-butyl)-1H-pyrazol-4-yl)-2-(2-fluoro-4-((6-sulfamoylquinolin-4-yl)oxy)phenyl)acetamide] |
| < 2.5 | Cc1cc(CC(=O)Nc2cnn(C(C)(C)C)c2)ccc1Oc1ccnc2ccc(N3CCC(O)C3=O)cc12 (single isomer, unassigned) [Compound 327, N-(1-(tert-butyl)-1H-pyrazol-4-yl)-2-(4-((6-(3-hydroxy-2-oxopyrrolidin-1-yl)quinolin-4-yl)oxy)-3-methylphenyl) acetamide] |
| 19.8 | COc1ccc2ncnc(Oc3cnc(CC(=O)Nc4cc(C(C)(C)C)cnn4)c(F)c3)c2c1 [Compound 31, N-(5-(tert-butyl)pyridazin-3-yl)-2-(3-fluoro-5-((6-methoxy-quinazolin-4-yl)oxy)pyridin-2-yl)acetamide] |
| 29.6 | COc1ccc2ncnc(Oc3ccc(CC(=O)Nc4cc(C(C)(C)CO)ccn4)c(F)c3)c2c1 [Compound 35, 2-(2-fluoro-4-((6-methoxy-quinazolin-4-yl)oxy)phenyl)-N-(4-(1-hydroxy-2-methylpropan-2-yl)pyridin-2-yl)acetamide] |
| < 2.5 | CN1CCN(S(=O)(=O)c2ccc3nccc(Oc4ccc(CC(=O)Nc5cnn(C(C)(C)C)c5)c(F)c4)c3c2)CC1 [Compound 126, N-(1-(tert-butyl)-1H-pyrazol-4-yl)-2-(2-fluoro-4-((6-((4-methylpiperazin-1-yl)sulfonyl)quinolin-4-yl)oxy)phenyl)acetamide] |
| < 2.5 | Cc1cc(CC(=O)Nc2cc(C3CC3)[nH]n2)ccc1Oc1ccnc2ccc(S(C)(=O)=O)cc12 [Compound 234, N-(5-cyclopropyl-1H-pyrazol-3-yl)-2-(3-methyl-4-((6-(methylsulfonyl)quinolin-4-yl)oxy)phenyl)acetamide] |
| 7.2 | COc1ccc2ncnc(Oc3ccc(CC(=O)Nc4cc(C(C)(C)C)cnn4)c(F)c3)c2c1 [Compound 30, N-(5-(tert-butyl)pyridazin-3-yl)-2-(2-fluoro-4-((6-methoxy-quinazolin-4-yl)oxy)phenyl) acetamide] |
| < 2.5 | Cc1cc(CC(=O)Nc2cnn(C(C)(C)C)c2)ccc1Oc1ccnc2ccc(S(=O)(=O)C3COC3)cc12 [Compound 101, N-(1-(tert-butyl)-1H-pyrazol-4-yl)-2-(3-methyl-4-((6-(oxetan-3-ylsulfonyl)quinolin-4-yl)oxy)phenyl)acetamide] |
| < 2.5 | CN1CCC(Oc2ccc3nccc(Oc4ccc(CC(=O)Nc5cc(C(C)(C)C)[nH]n5)c(F)c4)c3c2)CC1 [Compound 136, N-(5-(tert-butyl)-1H-pyrazol-3-yl)-2-(2-fluoro-4-((6-((1-methyl-piperidin-4-yl)oxy)quinolin-4-yl)oxy)phenyl) acetamide] |
| < 2.5 | Cc1c(Oc2ccnc3ccc(C(=O)N4CCC(O)C4)cc23)ccc(CC(=O)Nc2cnn(C(C)(C)C)c2)c1F (single isomer, unassigned) [Compound 352, N-(1-(tert-butyl)-1H-pyrazol-4-yl)-2-(2-fluoro-4-((6-(3-hydroxy-pyrrolidine-1-carbonyl)quinolin-4-yl)oxy)-3-methyl-phenyl) acetamide] |
| < 2.5 | Cc1cc(CC(=O)Nc2cnn(C(C)(C)C)c2)ccc1Oc1ccnc2ccc(OC3CCNCC3O)cc12 (racemic) [Compound 189, N-(1-(tert-butyl)-1H-pyrazol-4-yl)-2-(4-((6-((-3-hydroxy-piperidin-4-yl)oxy)quinolin-4-yl)oxy)-3-methylphenyl) acetamide] |
| < 2.5 | Cc1c(Oc2ccnc3ccc(S(C)(=O)=O)cc23)ccc(CC(=O)Nc2cc(C(C)(C)C)n[nH]2)c1F [Compound 175, N-(5-(tert-butyl)-1H-pyrazol-3-yl)-2-(2-fluoro-3-methyl-4-((6-(methylsulfonyl)quinolin-4-yl)oxy)phenyl)acetamide] |
